# Measured values as given in patent publication US20130005802A1, “TREATMENT OF WNT/FRIZZLED-RELATED DISEASES” (priority 2009, published 2013).
# Tests used:
# [1] = test system: Dishevelled-2; assay: Immunoblot of endogenous cytosolic Dishevelled-2 in U2OS cells; assay type: cell-based; conditions: 1-7.5 μM, read-out: half maximal reduction of Dishevelled-2
# Description: (§1) After treatment, cytosolic fraction as well as cellular membrane were isolated as described (Mikels, A. J., et al. PLoS Biol 2006, 4, e115, incorporated herein by reference in its entirety). Immunoblots using β-catenin or Dishevelled-2 antibody were used to detect the respective protein levels in cytosol or on membrane, with β-actin immunoblots used for loading controls.
# Dishevelled proteins (Dishevelled-1, 2, and 3 in mammalian cells) are intracellular molecules transducing Frizzled signaling.
# [2] = test system: HCT116 cells; assay: Flow-based cytotoxicity assay (annexin V), HCT116; assay type: cell-based; conditions: 3 days, 0.2-20 μM
# Description: (§2) After 3 days incubation, all cells were harvested with 0.05% trypsin/EDTA and spun down by centrifugation. Cells were labeled with biotin-conjugated Annexin V, and then stained with 7-AAD and Streptavidin-APC. Samples were acquired by FACSCalibur machine (BD Bioscience) and analyzed with CellQuest software. Cells were analyzed for expression of Annexin V as a marker of apoptosis.
# (§3) Annexin V may be used as a marker for apoptosis and other forms of cell death. […] After 3 days of incubation, all cells were harvested with 0.05% trypsin/EDTA, labeled with biotin-conjugated Annexin V, and then stained with 7-AAD and streptavidin-APC. Samples were acquired by FACSCalibur, and percentages of annexin V-positive cells were analyzed and plotted as shown in FIG. 11. Cells were analyzed for expression of Annexin V as a marker of apoptosis.
# [3] = test system: β-catenin; assay: Western blot of cytosolic β-catenin in colorectal cancer cells; assay type: cell-based
# Description: CRC explants and colorectal cancer cell lines were cultured in 6-well plates. […] After washing cells with PBS three times, hypotonic lysis buffer consist of 10 mM Tris-HCl, pH7.4 and 0.2 mM MgCl2, supplemented with 1× Halt Protease and Phosphatase Inhibitor Cocktail (Thermo Scientific Pierce Protein Research Products, Rockford, Ill.) were applied to make cell lyates for Western Blot.
# After washing cells with PBS, cell lysates were made with hypotonic lysis buffer.
# [4] = test system: peripheral blood mononuclear cells (PBMCs); assay type: cell-based; conditions: human, 3 days
# Description: as §2, §3
# [5] = test system: CRC119 tumor cells; assay: Flow-based cytotoxicity assay (annexin V), CRC119; assay type: cell-based; conditions: 3 days, 0.2-20 μM
# Description: as §2, §3
# [6] = test system: HCT116 tumors; assay: In vivo anti-tumor effect, HCT116 tumors; design: species or system NOD/SCID mice
# Description: HCT116 colon cancer cells were harvested from flasks with 0.05% Trypsin/EDTA, washed with PBS, and resuspended with Hanks buffered solution at 5×10^6 cells/100 μL concentration. CRC explants (CRC039) cultured in vitro were harvested with the same procedure, and mixed with equal volume of Matrigel to make 1×10^6 cells/100 μL concentration. A hundred μL of cell suspension was inoculated to the flank of NOD/SCID mice 4 days before the start of treatment. […] Tumor size was measured 3 times a week until mice were sacrificed.
# HCT116 colon cancer cells were harvested from flasks with 0.05% Trypsin/EDTA and resuspended with Hanks buffered solution at 5×10^6 cells/100 μL concentration. CRC explants (CRC039) cultured in vitro were harvested with the same procedure and mixed with equal volume of Matrigel to make 1×10^6 cells/100 μL concentration. The cell suspension (100 μL) was inoculated into the flank of NOD/SCID mice 4 days before the start of treatment. […] Initially, 2 weeks of treatment was planned for both HCT116 and CRC039. However, treatment was extended to 3 weeks for CRC039 cells because the […] grew much slower than the HCT116 cell line. Tumor size was measured 3 times a week until mice were euthanized.
# [7] = test system: β-catenin; assay: Immunohistochemistry of β-catenin in treated tumors; assay type: in vivo, NOD/SCID mice; conditions: 200 mg/kg, 2 or 3 weeks
# Description: Paraffin-embedded specimens were cut into 4 μm-thick of sequential sections. After dewaxing in xylene and rehydrating stepwise in ethanol, sections were subjected to heat-induced antigen retrieval. Endogenous peroxidase activity was blocked with 3% H2O2, and non-specific binding was blocked with non-immune horse sera. Sections were then incubated with primary antibodies overnight at 4C. Anti-β-catenin (sc-65483, Santa Cruz Biotechnology, Inc., Santa Cruz, Calif.) and anti-Dvl-2 (sc-8026, Santa Cruz Biotechnology, Inc., Santa Cruz, Calif.) monoclonal antibodies were used at (1:50) dilution. After rinsing the sections were incubated with the biotinylated secondary antibody (1:200 dilution; Dakopatts, Copenhagen, Denmark) for 30 min at room temperature and then with the avidin-biotin peroxidase complex from the Vector Elite ABC kit (Vector Laboratories, Burlingame, Calif.) according to the manufacturer's instructions. Visualization was achieved using 3,3′-diaminobenzidine tetrahydrochloride and H2O2. Specimens were counterstained with hematoxylin.
# NOD/SCID mice were implanted with colorectal cancer explants or cell lines. […] Tumors were excised and fixed with 10% neutralized, buffered formalin. Paraffin-embedded specimens were cut into 4 μm-thick of sequential sections. After dewaxing and rehydration, heat-induced antigen retrieval was performed. […]
# [8] = test system: β-catenin; assay: Immunoblot of Wnt3A-stimulated β-catenin stabilization in U2OS cells; assay type: cell-based
# Description: as §1
# The accumulation of cytosolic β-catenin is a measure of canonical Wnt signaling (Mikels, A. J., and Nusse, R. PLoS Biol 2006, 4, e115, incorporated herein by reference).
compound,measurement,setting,value
O=C(Nc1ccc([N+](=O)[O-])cc1Cl)c1cc(Cl)ccc1O [niclosamide],IC50,[1],~1 µM
same,concentration with steep increase of annexin V-positive cells,[2],0.2 µM
same,cytosolic β-catenin expression,"[3]; CRC057 and HCT116, 1, 5, 10 μM, 18 hr",downregulated
same,cytosolic β-catenin expression,[3]; HT29 cells,milder change
same,doses at which apoptosis was shown (annexin V),[4],10 to 20 µM
same,concentration with steep increase of annexin V-positive cells,[5],1 µM
same,tumor volume vs control,"[6]; 200 mg/kg gavage, after two weeks",less than half a volume
same,tumor growth,"[6]; 10, 100 or 200 mg/kg gavage, 6 days per week, 2 weeks",significantly inhibited the growth
same,cytoplasmic expression of β-catenin in tumors vs control,[7],decreased levels
same,Wnt3A-stimulated cytosolic β-catenin stabilization,"[8]; 7.5 μM, cytosol",prevented
same,membrane-bound β-catenin levels,"[8]; 7.5 μM, membrane",relatively unchanged
same,concentration range of the inhibitory effect on β-catenin stabilization,"[8]; immunoblot, n=3",1 to 7.5 µM
same,IC50,"[8]; immunoblot, n=3, read-out: half maximal inhibition of Wnt3A signaling (β-catenin stabilization)",~1 µM
